Columns and labels:
[1] = tested on: MDA-MB-231; assay: Preliminary in vitro profiling of virtual hits; format: cell-based, human
Description: Approximately 210,000 small molecules from the SPECS virtual library of compounds were imported, rendered, and minimised using a MMFF94x force field and run in a virtual screening simulations programme using Glide SP within Maestro software (Glide, version 9.5, Schrödinger; http://www.schrodinger.com). These compounds underwent four stages of filtration including prefiltration of the non-drug-like compounds in accordance with Lipinski’s rules and excluding chemically unstable and potentially toxic groups. This was followed by high throughput virtual screening (HTVS), standard precision virtual screening (SPVS) and extra precision virtual screening (XPVS). Each compound was positioned in the chosen pocket, which was made up of the area surrounding the three amino acids Asp 1036, Ser 910, and Lys 1032 within a 12 A° radius and scored for electrostatic and van der Waals interactions as implemented in the Schrodinger virtual screening package (version 9.5). […] These 25 hits underwent preliminary in vitro profiling in the metastatic triple negative breast cancer (TNBC) cell line (MDA-MB-231) for antiproliferative and antimigratory properties.

[2] = Turbidimetric aqueous solubility; format: physicochemical; settings: 37 °C, 2 h
Procedure: Both the estimated precipitation range (lower and upper bound) and a mid-range value were measured. Nicardipine and pyrene were used as control compounds.
The test compound was diluted in buffer to give a range of concentrations (1, 3, 10, 30, and 100 μM; final DMSO concentration 1%) and incubated at 37 °C for 2 hr.
The test compound (10 mM in DMSO) was serially diluted to give solutions of 0.1, 0.3, 1, and 3 mM in DMSO. Each test compound concentration was then further diluted 1 to 100 in buffer (typically 0.01 M phosphate buffered saline pH 7.4) so that the final DMSO concentration was 1%, and the final test compound concentrations were 1, 3, 10, 30, and 100 μM. The experiment was performed at 37 °C and each concentration was incubated in 7 replicate wells. The plates were incubated for 2 h at 37 °C before the absorbance was measured at 620 nm. Nicardipine and pyrene were included as control compounds. The solubility of nicardipine is pH dependent whereas the solubility of pyrene is pH independent.
An estimated precipitation range (lower and upper bound) and a calculated mid-range value were returned, along with any relevant comments, in the form of an Excel spreadsheet.

[3] = buffered aqueous solution (PBS pH 7.4, 1% DMSO)

CC(C)(C)c1ccc(C(CN)c2ccc(Cl)cc2)cc1 (centres unmarked) [Compound I]
Antiproliferative and antimigratory properties (preliminary profiling) [1]: low micromolar antiproliferative and antimigratory properties exceeding those of chloropyramine (C4)
Estimated Precipitation Range, Calculated Mid-Range [2, 3]: >100 µM
Estimated Precipitation Range, Lower Bound [2, 3]: 100 µM
Estimated Precipitation Range, Upper Bound [2, 3]: >100 µM
Aqueous solubility (in words) ([2]; turbidimetric): high aqueous solubility

— publication PMC7435868, “Structure-Based Virtual Screening, Synthesis and Biological Evaluation of Potential FAK-FAT Domain Inhibitors for Treatment of Metastatic Cancer” (Molecules, 2020)
